In patent US20240245653A1, “PHARMACEUTICAL FORMULATIONS” (SPEPHARM AG, priority 2021, published 2024):
Like-named read-outs stand apart in the source and are kept apart here.

Tests used:
[1] = Dantrolene sodium solubility in water only solutions of HPBCD (visual inspection); format: physicochemical; conditions: for solubility: aqueous with cosolvent or surfactant or cyclodextrin; for Maximum concentration of dantrolene sodium that could be dissolved: <2 μm particle size
Procedure: This study was performed to determine the impact of HPBCD on the solubility of dantrolene Sodium. An initial comparison of different HPBCDs was carried out using HP5 and HP7 substituted variants (Cavitron™ W7, Ashland, Inc.), which have a typical degree of substitution (average number of hydroxypropyl groups per cyclodextrin molecule) of 4.1-5.1 and 6.0-8.0 respectively. (Equivalent products, such as Kleptose® HPB (Roquette), which is a low endotoxin burden (<10 IU/g) HP5 substituted β-cyclodextrin with typical molar substitution (i.e. per anhydro glucose subunit) of 0.65 (range 0.58 to 0.68), are also available for commercial scale manufacturing.)
Due to the larger molecular weight of the HP7 variant, more weight of excipient was required to achieve the same molar equivalent concentration compared with the HP5 variant. Overall, HP5 substituted β-cyclodextrin was preferred and it was therefore used for subsequent test formulations.
Further analysis was performed to determine the maximum possible concentration of dantrolene sodium, at different particle sizes, in water only solutions of HP5 substituted β-cyclodextrin. Commercially available samples of dantrolene sodium having particle sizes of <2 μm and <63 μm were tested. […] Results are shown in Table 1 below; DNa denotes dantrolene sodium.

[2] = Dantrolene sodium solubility with HPBCD and parenteral-compatible co-solvent addition (visual inspection); format: physicochemical; conditions: for Result (assessed by visual inspection): 7 Mol equivalent HP5 HPBCD solution
Procedure: This experiment was performed to determine the effects of different parenteral-compatible alcohol- and ketone-based co-solvents on dantrolene sodium solubility, in a 7 Mol equivalent HP5 substituted HPBCD solution. The results are shown in Table 2 below; DNa denotes dantrolene sodium.

O=C1CN(/N=C/c2ccc(-c3ccc([N+](=O)[O-])cc3)o2)C([O-])=N1.[Na+] [DNa, dantrolene sodium]
Result (assessed by visual inspection) ([1]; DNa 4.46 mg/mL anhydrous salt equivalent (5.16 mg/mL hemiheptahydrate equivalent), particle size <2 μm, 7 molar equivalent HP5 HPBCD, water only): Complete solution | Result (assessed by visual inspection) ([1]; DNa 4.5 mg/mL anhydrous salt equivalent (5.33 mg/mL hemiheptahydrate equivalent), particle size <2 μm, 7 molar equivalent HP5 HPBCD, water only): Complete solution | Result (assessed by visual inspection) ([1]; DNa 4.5 mg/mL anhydrous salt equivalent (5.35 mg/mL hemiheptahydrate equivalent), particle size <63 μm, 7 molar equivalent HP5 HPBCD, water only): Complete solution | Result (assessed by visual inspection) ([1]; DNa 4.55 mg/mL anhydrous salt equivalent (5.36 mg/mL hemiheptahydrate equivalent), particle size <2 μm, 7 molar equivalent HP5 HPBCD, water only): Complete solution | Result (assessed by visual inspection) ([1]; DNa 4.6 mg/mL anhydrous salt equivalent (5.40 mg/mL hemiheptahydrate equivalent), particle size <2 μm, 7 molar equivalent HP5 HPBCD, water only): Slightly Hazy Solution (Incomplete) | Result (assessed by visual inspection) ([1]; DNa 4.65 mg/mL anhydrous salt equivalent (5.47 mg/mL hemiheptahydrate equivalent), particle size <2 μm, 7 molar equivalent HP5 HPBCD, water only): Hazy Solution (Incomplete) | Result (assessed by visual inspection) ([1]; DNa 4.75 mg/mL anhydrous salt equivalent (5.58 mg/mL hemiheptahydrate equivalent), particle size <2 μm, 7 molar equivalent HP5 HPBCD, water only): Hazy Solution (Incomplete) | Result (assessed by visual inspection) ([1]; DNa 4.75 mg/mL anhydrous salt equivalent (5.66 mg/mL hemiheptahydrate equivalent), particle size <63 μm, 7 molar equivalent HP5 HPBCD, water only): Hazy Solution (Incomplete) | Result (assessed by visual inspection) ([1]; DNa 5.0 mg/mL anhydrous salt equivalent (5.95 mg/mL hemiheptahydrate equivalent), particle size <2 μm, 7 molar equivalent HP5 HPBCD, water only): Hazy Solution (Incomplete) | solubility ([1]; hemiheptahydrate equivalent, 9 Mol equivalents of HPBCD, HP5 variant, purified water, read-out: Solubility of dantrolene sodium): 8500 µg/mL | solubility ([1]; hemiheptahydrate equivalent, 9 Mol equivalents of HPBCD, HP7 variant, purified water, read-out: Solubility of dantrolene sodium): 8500 µg/mL | solubility ([1]; thermodynamic from solid, as anhydrous salt equivalent, <63 μm particle size, 7 molar equivalent HP5 HPBCD, water only, read-out: Solubility (maximum concentration of dantrolene sodium that could be dissolved)): 4500 µg/mL | Maximum concentration of dantrolene sodium that could be dissolved ([1]; as anhydrous salt equivalent, 7 molar equivalent HP5 HPBCD, water only): 4.55 mg/mL | Maximum concentration of dantrolene sodium that could be dissolved ([1]; as hemiheptahydrate equivalent, 7 molar equivalent HP5 HPBCD, water only): 5.36 mg/mL | Solubility (maximum concentration of dantrolene sodium that could be dissolved) ([1]; as hemiheptahydrate equivalent, <63 μm particle size, 7 molar equivalent HP5 HPBCD, water only): 5350 µg/mL | Result (assessed by visual inspection) ([2]; DNa 4.5 mg/mL anhydrous salt equivalent, Benzyl Alcohol 1%): Moderate Excess | Result (assessed by visual inspection) ([2]; DNa 4.5 mg/mL anhydrous salt equivalent, Ethanol Abs. 1%): Hazy - Small Excess | Result (assessed by visual inspection) ([2]; DNa 4.5 mg/mL anhydrous salt equivalent, Glycerol 5.18%): Hazy - Small Excess | Result (assessed by visual inspection) ([2]; DNa 4.5 mg/mL anhydrous salt equivalent, N,N-Dimethyl-formamide 2%): Hazy - Small Excess | Result (assessed by visual inspection) ([2]; DNa 4.5 mg/mL anhydrous salt equivalent, Polyethylene Glycol 300 (PEG-300) 5%): Hazy - Small Excess | Result (assessed by visual inspection) ([2]; DNa 4.5 mg/mL anhydrous salt equivalent, Polyethylene Glycol 400 (PEG-400) 5%): Hazy - Small Excess | Result (assessed by visual inspection) ([2]; DNa 4.5 mg/mL anhydrous salt equivalent, Propylene Glycol 5%): Moderate Excess | Result (assessed by visual inspection) ([2]; DNa 4.5 mg/mL anhydrous salt equivalent, Tert-Butanol 5%): Large Excess | Result (assessed by visual inspection) ([2]; DNa 4.5 mg/mL anhydrous salt equivalent, Tetrahydrofuran 2%): Large Excess | Result (assessed by visual inspection) ([2]; DNa 4.55 mg/mL anhydrous salt equivalent, N-Methyl-pyrrolidone 2, 4, 6%): Hazy - Small Excess | Result (assessed by visual inspection) ([2]; DNa 4.75 mg/mL anhydrous salt equivalent, Tert-Butanol 5%): Large Excess | Result (assessed by visual inspection) ([2]; DNa 5.0 mg/mL anhydrous salt equivalent, Benzyl Alcohol 2%): Large Excess | Result (assessed by visual inspection) ([2]; DNa 5.0 mg/mL anhydrous salt equivalent, Ethanol Abs. 20%): Large Excess | Result (assessed by visual inspection) ([2]; DNa 5.0 mg/mL anhydrous salt equivalent, Tert-Butanol 10%): Large Excess | Result (assessed by visual inspection) ([2]; DNa 5.0 mg/mL anhydrous salt equivalent, Tert-Butanol 20%): Large Excess | Effect of parenteral-compatible alcohol- or ketone-based solvents on dantrolene solubility in the presence of HPBCD ([2]; all 15 of the solvents tested, including PEG 300 and PEG 400): reduced dantrolene solubility
